In paper PMC7822816, “Halo-fluorescein for photodynamic bacteria inactivation in extremely acidic conditions” (Nature Communications, 2021):
Values joined by “and” are separate entries in the source; they are usually repeats but may differ in a detail not shown here. Equal entries are not always repeated.

What was measured:
[1] = Photophysical characterization (absorption, fluorescence, phosphorescence, lifetime); type: physicochemical
Procedure: Section S6. Photophysical Characterizations
S6.1 Absorption, fluorescence, and phosphorescence spectra
Fluorescein and its derivatives were dissolved in DMSO to obtain 1 mM stock solutions.
The stock solutions were diluted with deionized water to 10 μM.
Supplementary Figure 20. The absorption (black), fluorescence (blue), and phosphorescence (red, slit 25 nm) spectra of FL.
Supplementary Figure 21. The absorption (black), fluorescence (blue), and phosphorescence (red, slit 25 nm) spectra of DCF.
S6.2 Fluorescence lifetime
Fluorescence decay samples was recorded with Fluorolog-3 (Horiba). The solution of samples were prepared to be 5 μM in 0.5% (v/v) DMSO, and diluted with 0.1M NaOH.
S6.5 Photophysical properties of the halogenated-fluorescein derivatives
Supplementary Table 4. Photophysical Properties of Halogenated-fluorescein derivatives. […]
a Measured in 2% DMSO; b Measured in 2% DMSO citric acid -disodium hydrogen phosphate buffer; c Measured in a mixed solvent of D 2O and CH3CN (VD2O:
VCH3CN = 1: 15); d The solution of samples were prepared to be 5 μM in 0.5% (v/v) DMSO, and diluted with 0.1 M NaOH.

[2] = 1O2 phosphorescence emission under different pH and irradiance; type: physicochemical; settings: pH 2.2 (the gastric acidity), 10 μM
From the text: To evaluate the pH-dependent ^1O2 generation, TIF, PB, and RB were chosen here because of their high ^1O2 generation efficiency and low pH0.5. […] Similar results from PB and RB were also observed (Supplementary Figs. 17 and 18). When pH was lowered down to 2.2 (the gastric acidity), appreciable ^1O2 phosphorescence emission was still collected from TIF, indicating the good performance of TIF in photosensitized generation of ^1O2 in extremely acidic condition. Besides, the pH-induced decrease of ^1O2 generation could be compensated through enlarging the light irradiance. […] Therefore, TIF featured good performance for potential photodynamic bacteria inactivation at extremely acidic conditions.
A total of 10 μM TIF solutions were first prepared with citric acid–Na2HPO4 buffer (100 mM, diluted by D2O) to yield different pH (2.2–6.0). Then, a laser of 532 nm was selected as the lighting source, and the ^1O2 phosphorescence emission were collected.
S5.3 1O2 phosphorescence emission of TIF under different pH and irradiance 10 μM TIF solutions were first prepared with citric acid-Na2HPO4 buffer (100 mM, diluted by D2O) to yield different pH (2.2-6.0). The pH value of solution were adjust by HCl (c, diluted by D2O). Then, laser of 532 nm was selected as the light source, and the 1O2 phosphorescence emission were collected by near infrared detector (H-10330)
Supplementary Figure 19. […]

L. plantarum [3] = assay: Photodynamic inhibition of L. plantarum (coating plate method); type: cell-based, Lactobacillus plantarum
A. acidoterrestris = assay: IC50 of photodynamic inactivation, A. acidoterrestris; type: cell-based; settings: Alicyclobacillus acidoterrestris, 10 min; pH 2.5; LED 520 nm, 35 mW/cm^2, 10 min
[4] = tested on: bacteria in passionfruit lemon juice; assay: Photodynamic sterilization of acidic juices
Procedure: The prepared juice samples were divided into two groups: one for light treatment of 10–20 min (xenon lamp with 420 nm long-pass filter, 100 mW/cm^2), and another without (stored at 4 °C). […] For other juices (pH 3.6–4.6), similar bacteria inhibition results were obtained (Supplementary Figs. 63–66). Besides, the greatly extended shelf life was also applicable to strawberry juice (Supplementary Fig. 67) and tomato juice (Supplementary Fig. 68). […] It should be noted that the TIF-based method was efficient in treatment of acid- and heat-resistant A. acidoterrestris (Fig. 6), the main cause of fruit juice spoilage and deterioration (even after pasteurization[41]).
Fresh juices were prepared and divided into two groups (each to a culture dish of 60 mm id), and then TIF was added with final concentration of 10 μM. One group was subjected to light processing (xenon lamp, 300 W, 420 nm optical filter, beam spot size 60 mm) for 10–20 min, and another without. All samples were sub-packed into the headspace bottle and stored in 4 °C for different time. To determine the bacteria colonies, 1 mL juice samples were mixed with plate count agar and culture at 37 °C for 48 h (GB 4789.2-2016). Afterward, the total number of bacteria colonies were counted.

S. aureus = assay: IC50 of photodynamic inactivation, S. aureus; settings: Staphylococcus aureus, 10 min, pH 2.5, read-out: IC50 (S. aureus)
Procedure: (§1) For quantitative comparison, the half-maximal inhibitory concentrations (IC50) of TIF for these bacterial were measured (Supplementary Table 6, and Supplementary Figs. 51–58).
(§2) S. aureus and MRSA, and C. albicans were provided by West China Hospital of Stomatology, Sichuan University. A. acidoterrestris, S. enterica, H. pylori, L. plantarum, and E. coli were provided by College of Life Science, Sichuan University. The bacteria were cultured overnight in a constant temperature oscillator (37 °C, 170 r/min, the specific culture conditions were listed in Supplementary Table 6). Suspensions of bacteria (100 μL, diluted 1000-folds, PBS) were added with different concentration PSs (final volume of 1 mL), and irradiated with LED (λ = 520 nm, 35 mW/cm^2) for 10 min. Then, the treated bacteria liquid (100 μL) were added into the culture medium and cultured in a 24-well plate. The OD600 of bacteria was measured to obtain the bacteria CFUs, and the survival rate were calculated as C/C0 × 100%, where C is the CFU of sample which treated with PSs and light, and C0 is the blank without any treatment. All photodynamic sterilizations were carried out in at least three replicates.

Salmonella = assay: IC50 of photodynamic inactivation, Salmonella; settings: 10 min, pH 2.5, read-out: IC50 (Salmonella)
Procedure: (§3) The bacteria were cultured overnight in a constant temperature oscillator (37 °C, 170 r/min, the specific culture conditions were listed in Supplementary Table 6). Suspensions of bacteria (100 μL, diluted 1000-folds, PBS) were added with different concentration PSs (final volume of 1 mL), and irradiated with LED (λ = 520 nm, 35 mW/cm^2) for 10 min. Then, the treated bacteria liquid (100 μL) were added into the culture medium and cultured in a 24-well plate. The OD600 of bacteria was measured to obtain the bacteria CFUs, and the survival rate were calculated as C/C0 × 100%, where C is the CFU of sample which treated with PSs and light, and C0 is the blank without any treatment. All photodynamic sterilizations were carried out in at least three replicates.
Growth inhibition of E. coli by different concentrations of TIF.
Irradiation: 520 nm green LED (6 mW/cm2), 10 min. Error bars = Standard Deviation (n=6).
Growth inhibition of Salmonella by different concentrations of
TIF. Irradiation: 520 nm green LED (6 mW/cm2), 10 min.

C. albicans = assay: IC50 of photodynamic inactivation, C. albicans; settings: Candida albicans, 10 min, pH 3, read-out: IC50 (C. albicans)
Procedure: as §1
Bacterial strains are listed in Supplementary Table 6. S. aureus and MRSA, and C. albicans were provided by West China Hospital of Stomatology, Sichuan University. A. acidoterrestris, S. enterica, H. pylori, L. plantarum, and E. coli were provided by College of Life Science, Sichuan University. The bacteria were cultured overnight in a constant temperature oscillator (37 °C, 170 r/min, the specific culture conditions were listed in Supplementary Table 6). Suspensions of bacteria (100 μL, diluted 1000-folds, PBS) were added with different concentration PSs (final volume of 1 mL), and irradiated with LED (λ = 520 nm, 35 mW/cm^2) for 10 min. Then, the treated bacteria liquid (100 μL) were added into the culture medium and cultured in a 24-well plate. The OD600 of bacteria was measured to obtain the bacteria CFUs, and the survival rate were calculated as C/C0 × 100%, where C is the CFU of sample which treated with PSs and light, and C0 is the blank without any treatment. All photodynamic sterilizations were carried out in at least three replicates.
Irradiation: 520 nm green LED (6 mW/cm2), 10 min. Error bars = Standard Deviation (n=3).
Irradiation: 520 nm green LED (6 mW/cm2), 10 min.

L. plantarum [5] = assay: IC50 of photodynamic inactivation, L. plantarum; settings: Lactiplantibacillus plantarum, 10 min, pH 2.5, read-out: IC50 (L. plantarum)
Procedure: as §1, §2

[6] = tested on: broad band of aciduric bacteria; assay: Photodynamic inactivation, summary over aciduric bacteria; settings: read-out: IC50 (broad band of aciduric bacteria)
Procedure: as §1, §3

[7] = tested on: C. albicans infection of oral mucosa
From the text: The extremely acidic environment was constructed through changing the pH of the mucosa and diluting PSs in pH 3.0 PBS buffer. […] During the investigations, the infected ICR mice were divided into six groups (six mice per group): blank, light, TIF, TIF + light, Ce 6 + light, and Zn-tpp + light. For comparison and better visualization of the infection, a normal group (no infection) was also included.
To construct the oral mucosal infection model, cotton balls immersed in solutions containing 10^8 CFU/mL of C. albicans were placed in the mouth of mice for 75 min. At day 1 and day 3, 50 μL pH 3.0 PBS and PSs (20 μM, diluted by pH 3.0 PBS) were added to oral mucosa, and treated with different lasers (510 nm for TIF, 660 nm for Ce 6 and Zn-tpp, 50 mW/cm^2) for 10 min.
To investigate the therapy effect, photographs, colonies, weights, and pathology index of mice were taken every other day. After day 3, one mouse in each group was sacrificed, and the tissues of oral mucosa were harvested for hematoxylin and eosin (H&E) staining. The pathology index was evaluated based on the standard given in Supplementary Table 10.

## O=C(O)c1ccccc1-c1c2cc(I)c(=O)c(I)c-2oc2c(I)c(O)c(I)cc12 [TIF, 2′,4′,5′,7′-tetraiodofluorescein]
[1]
  kdec: 1e+11 s⁻¹
  knr: 9.97e+10 s⁻¹
  krad: 3e+08 s⁻¹
  maximum absorption: 526 nm
[1]; 5 μM in 0.5% (v/v) DMSO, diluted with 0.1 M NaOH
  ΦFL: 0.003
[1]; 2% DMSO
  λAbs: 527 nm
  λPh: 701 nm
  λem: 551 nm
[1]; fluorescence lifetime, 5 μM in 0.5% DMSO, 0.1 M NaOH
  τfl: 0.01 ns
[2]
  1O2 phosphorescence emission (1270 nm): appreciable
L. plantarum [3]; 0.5 μM, light, pH range 2.5–7.0
  antimicrobial activity at different pH: considerable antimicrobial activity
L. plantarum [3]; no light, concentration up to 50 μM
  dark toxicity (bacteria growth): no significant inhibition of bacteria growth
L. plantarum [3]; pH 2.5, 10 μM, irradiation 1 h
  live/dead bacterial staining (SYTO 9/propidium iodide): bright red fluorescence
  membrane integrity (SEM, TEM): obvious deformation and distortion parts
A. acidoterrestris
  IC50: 580 nM
[4]; passionfruit lemon juice pH 2.8, 10 μM, xenon lamp 420 nm long-pass 100 mW/cm^2, 10 min, stored at 4 °C
  shelf life of juice after photo-treatment: ~ 15 days and 15 days
[4]; passionfruit lemon juice, versus pasteurization and O3 treatment
  sterilization performance compared with standard methods: comparable sterilization performance as pasteurization
S. aureus
  IC50: 370 nM
Salmonella
  IC50: 630 nM
C. albicans
  IC50: 1040 nM
L. plantarum [5]
  IC50: 10 nM
[6]
  IC50: < 1100 nM
[7]; TIF + light group
  pseudo membrane on tongue: disappeared gradually
[7]; TIF + light group, within 7 days
  body weight loss of infected mice: least loss
[7]; TIF + light group, 20 μM in pH 3.0 PBS, 510 nm 50 mW/cm^2 10 min, day 1 and day 3
  pathology index: remained almost unchanged
[7]; TIF group, no light
  H&E staining of tongue sections, without light: large amounts of inflammation infiltration
[7]; photosensitizer + light (510 nm TIF, 660 nm Ce 6 and Zn-tpp)
  H&E staining of tongue sections, with light: generally similar to that of the normal group
